Laboratory results from patent publication US9102688B2, “Sulfonaminoquinoline hepcidin antagonists” (Vifor (International) AG, priority 2011, dated 2015).
pIC50: −log10 of the molar value.

Target: T1, human ferroportin (Homo sapiens, UniProt Q9NP59)
T1 construct: expressed in transfected cells
T1 sequence (Q9NP59 1-571): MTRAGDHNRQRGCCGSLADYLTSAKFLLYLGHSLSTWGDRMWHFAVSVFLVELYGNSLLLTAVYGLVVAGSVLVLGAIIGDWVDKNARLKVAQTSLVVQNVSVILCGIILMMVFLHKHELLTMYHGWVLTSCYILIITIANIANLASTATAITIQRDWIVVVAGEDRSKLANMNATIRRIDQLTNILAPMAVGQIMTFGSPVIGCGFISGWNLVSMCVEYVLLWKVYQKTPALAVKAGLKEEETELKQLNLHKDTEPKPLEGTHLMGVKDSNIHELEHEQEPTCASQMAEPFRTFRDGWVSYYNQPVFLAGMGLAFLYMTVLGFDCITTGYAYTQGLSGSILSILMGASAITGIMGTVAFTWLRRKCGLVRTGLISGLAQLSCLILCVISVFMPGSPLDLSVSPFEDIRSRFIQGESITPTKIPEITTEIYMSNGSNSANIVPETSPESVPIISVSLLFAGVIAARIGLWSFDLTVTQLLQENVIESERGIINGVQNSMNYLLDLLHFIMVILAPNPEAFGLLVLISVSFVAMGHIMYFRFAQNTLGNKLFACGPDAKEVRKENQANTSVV
Assay: ferroportin internalization assay (inhibition of hepcidin-induced internalization of Fpn)
Type: cell-based
Conditions: MDCK-FPN-HaloTag cells, 100 nM hepcidin, overnight incubation; concentration range from 0.04 to 40 μM
Method in brief: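 MDCK cells stably expressing human ferroportin–HaloTag were labelled with TMR ligand, then incubated overnight at 37 °C with compound plus 100 nM hepcidin (final). After fixation and nuclear staining, confocal imaging quantified membrane Fpn fluorescence to measure blocking of hepcidin-induced internalization.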

| SMILES | pIC50 |
| --- | --- |
| O=S(=O)(Nc1cccc2cccnc12)c1ccc(Cl)cc1Cl [Example 41, 2,4-Dichloro-N-quinolin-8-yl-benzenesulfonamide] | 6.00 |
| O=S(=O)(Nc1cccc2cccnc12)c1ccc(C(F)(F)F)cc1 [Example 17, N-Quinolin-8-yl-4-trifluoromethyl-benzenesulfonamide] | 6.00 |
| O=S1(=O)Nc2c(cc(Cl)c3cccnc23)-c2cc(OC3CCCC3)ccc21 [Example 514, 12-Chloro-9-cyclopentyloxy-5H-6-thia-4,5-diaza-chrysene 6,6-dioxide] | 6.38 |
| CCN(CC)c1ccc2c(c1)-c1cc(Cl)c3cccnc3c1NS2(=O)=O [Example 505, (12-Chloro-6,6-dioxo-5,6-dihydro-6λ*6*-thia-4,5-diaza-chrysen-9-yl)-diethyl-amine] | 5.66 |
| Nc1cc(C(F)(F)F)ccc1S(=O)(=O)Nc1cccc2cccnc12 [Example 35, 2-Amino-N-quinolin-8-yl-4-trifluoromethyl-benzenesulfonamide] | 6.12 |
| O=S(=O)(Nc1cccc2cccnc12)c1c(F)cccc1F [Example 64, 2,6-Difluoro-N-quinolin-8-yl-benzenesulfonamide] | 5.94 |
| O=C(Nc1ccccc1S(=O)(=O)Nc1cccc2cccnc12)C(F)(F)F [Example 49, 2,2,2-Trifluoro-N-[2-(quinolin-8-ylsulfamoyl)-phenyl]-acetamide] | 6.51 |
| O=S(=O)(Nc1cc(F)cc2cccnc12)c1ccccc1 [Example 75, N-(6-Fluoro-quinolin-8-yl)-benzenesulfonamide] | 6.11 |
| CN(C)CCNC(=O)c1cc(C2c3ccc4cccnc4c3NS(=O)(=O)N2C)ccc1F (stereo not shown) [Example 429, N-(2-Dimethylamino-ethyl)-2-fluoro-5-(2-methyl-3,3-dioxo-1,2,3,4-tetrahydro-3λ*6*-thia-2,4,5-triaza-phenanthren-1-yl)-benzamide] | 5.13 |
| O=S(=O)(Nc1ccc(Cl)c2cccnc12)c1ccccc1 [Example 25, N-(5-Chloro-quinolin-8-yl)-benzenesulfonamide] | 5.78 |
| Cc1ccc(S(=O)(=O)Nc2cccc3cccnc23)c(N)c1 [Example 14, 2-Amino-4-methyl-N-quinolin-8-yl-benzenesulfonamide] | 6.52 |
| N#Cc1ccc(S(=O)(=O)Nc2cc(OC(F)(F)F)cc3cccnc23)cn1 [Example 238, 6-Cyano-pyridine-3-sulfonic acid (6-trifluoromethoxy-quinolin-8-yl)-amide] | 5.68 |
| CC(C)C(=O)Nc1cc(C(F)(F)F)ccc1S(=O)(=O)Nc1cccc2cccnc12 [Example 61, N-[2-(Quinolin-8-ylsulfamoyl)-5-trifluoromethyl-phenyl]-isobutyramide] | 5.00 |
| O=S(=O)(Nc1cccc2cccnc12)c1ccccc1Cl [Example 11, 2-Chloro-N-quinolin-8-yl-benzenesulfonamide] | 5.10 |
| CN1C(c2ccc(F)cc2)c2cc(Cl)c3cccnc3c2NS1(=O)=O (stereo not shown) [Example 401, 9-Chloro-1-(4-fluoro-phenyl)-2-methyl-1,4-dihydro-2H-3-thia-2,4,5-triaza-phenanthrene 3,3-dioxide] | 4.90 |
| O=S1(=O)Nc2c(ccc3cccnc23)-c2cc(Cl)ccc21 [Example 325, 9-Chloro-5H-6-thia-4,5-diaza-chrysene 6,6-dioxide] | 6.11 |
| O=[N+]([O-])c1cc(F)ccc1S(=O)(=O)Nc1cccc2cccnc12 [Example 30, 4-Fluoro-2-nitro-N-quinolin-8-yl-benzenesulfonamide] | 6.04 |
| CN1C(c2ccccc2)c2ccc3cccnc3c2NS1(=O)=O (stereo not shown) [Example 115, 2-Methyl-1-phenyl-1,4-dihydro-2H-3-thia-2,4,5-triaza-phenanthrene 3,3-dioxide] | 6.06 |
| CC1c2ccc3cccnc3c2NS(=O)(=O)N1C (stereo not shown) [Example 413, 1,2-Dimethyl-1,4-dihydro-2H-3-thia-2,4,5-triaza-phenanthrene 3,3-dioxide] | 5.33 |
| Cc1ccc(S(=O)(=O)Nc2cccc3cccnc23)nc1 [Example 227, 5-Methyl-pyridine-2-sulfonic acid quinolin-8-ylamide] | 6.42 |
| O=S1(=O)Nc2c(cc(Cl)c3cccnc23)-c2ccccc21 [Example 328, 12-Chloro-5H-6-thia-4,5-diaza-chrysene 6,6-dioxide] | 6.49 |
| N#Cc1ccc2c(c1)-c1ccc3cccnc3c1NS2(=O)=O [Example 308, 6,6-Dioxo-5,6-dihydro-6λ*6*-thia-4,5-diaza-chrysene-9-carbonitrile] | 5.55 |
| O=S(=O)(Nc1ccc(C(F)(F)F)c2cccnc12)c1ccccc1 [Example 91, N-(5-Trifluoromethyl-quinolin-8-yl)-benzenesulfonamide] | 5.98 |
| CN1C(c2ccncc2F)c2ccc3cccnc3c2NS1(=O)=O (stereo not shown) [Example 387, 1-(3-Fluoro-pyridin-4-yl)-2-methyl-1,4-dihydro-2H-3-thia-2,4,5-triaza-phenanthrene 3,3-dioxide] | 5.80 |
| O=S(=O)(Nc1cc(OC(F)(F)F)cc2cccnc12)c1ccccn1 [Example 235, Pyridine-2-sulfonic acid (6-trifluoromethoxy-quinolin-8-yl)-amide] | 5.96 |
| Nc1cc(F)ccc1S(=O)(=O)Nc1cccc2cccnc12 [Example 31, 2-Amino-4-fluoro-N-quinolin-8-yl-benzenesulfonamide] | 5.40 |
| CN(C)CCOc1cc2c(c3ncccc13)NS(=O)(=O)c1ccccc1-2 [Example 562, [2-(6,6-Dioxo-5,6-dihydro-6λ*6*-thia-4,5-diaza-chrysen-12-yloxy)-ethyl]-dimethyl-amine] | 5.56 |
| O=S(=O)(Nc1cccc2cccnc12)c1cccc(Cl)c1Cl [Example 67, 2,3-Dichloro-N-quinolin-8-yl-benzenesulfonamide] | 5.15 |
